Assay [1] addresses T1, Serine/threonine-protein kinase mTOR (Homo sapiens, UniProt P42345). The assay can be described thus: Inhibition of mTOR (unknown origin) at 100 nM by kinase profiling assay relative to control.
The subject of assay [2] is J82. The assay can be described thus: Antiproliferative activity against human J82 cells assessed as inhibition of cell proliferation at 1 uM by CCK8 assay relative to control. It counts as functional.
For assay [3], the system named is T-24. The assay can be described thus: Antiproliferative activity against human T24 cells assessed as inhibition of cell proliferation at 1 uM by CCK8 assay relative to control. It counts as functional.
Assay [4] relates to SW780. The assay can be described thus: Antiproliferative activity against human SW780 cells assessed as inhibition of cell proliferation at 1 uM by CCK8 assay relative to control. It counts as functional.
In assay [5] the target is T2, Heat shock protein HSP90 (Homo sapiens, UniProt P07900+P08238). The assay is described as follows: Inhibition of Hsp90 (unknown origin) by TR-FRET assay. It counts as protein assay.
The target in assay [6] is T1, Serine/threonine-protein kinase mTOR. The assay is described as follows: Inhibition of mTOR (unknown origin) by kinase profiling assay.
For assay [7], the target named is Phosphatidylinositol 4,5-bisphosphate 3-kinase catalytic subunit alpha isoform (Homo sapiens, UniProt P42336). The assay is described as follows: Inhibition of PI3Kalpha (unknown origin) by kinase profiling assay.
Sequence of Phosphatidylinositol 4,5-bisphosphate 3-kinase catalytic subunit alpha isoform (P42336 whole entry, canonical isoform): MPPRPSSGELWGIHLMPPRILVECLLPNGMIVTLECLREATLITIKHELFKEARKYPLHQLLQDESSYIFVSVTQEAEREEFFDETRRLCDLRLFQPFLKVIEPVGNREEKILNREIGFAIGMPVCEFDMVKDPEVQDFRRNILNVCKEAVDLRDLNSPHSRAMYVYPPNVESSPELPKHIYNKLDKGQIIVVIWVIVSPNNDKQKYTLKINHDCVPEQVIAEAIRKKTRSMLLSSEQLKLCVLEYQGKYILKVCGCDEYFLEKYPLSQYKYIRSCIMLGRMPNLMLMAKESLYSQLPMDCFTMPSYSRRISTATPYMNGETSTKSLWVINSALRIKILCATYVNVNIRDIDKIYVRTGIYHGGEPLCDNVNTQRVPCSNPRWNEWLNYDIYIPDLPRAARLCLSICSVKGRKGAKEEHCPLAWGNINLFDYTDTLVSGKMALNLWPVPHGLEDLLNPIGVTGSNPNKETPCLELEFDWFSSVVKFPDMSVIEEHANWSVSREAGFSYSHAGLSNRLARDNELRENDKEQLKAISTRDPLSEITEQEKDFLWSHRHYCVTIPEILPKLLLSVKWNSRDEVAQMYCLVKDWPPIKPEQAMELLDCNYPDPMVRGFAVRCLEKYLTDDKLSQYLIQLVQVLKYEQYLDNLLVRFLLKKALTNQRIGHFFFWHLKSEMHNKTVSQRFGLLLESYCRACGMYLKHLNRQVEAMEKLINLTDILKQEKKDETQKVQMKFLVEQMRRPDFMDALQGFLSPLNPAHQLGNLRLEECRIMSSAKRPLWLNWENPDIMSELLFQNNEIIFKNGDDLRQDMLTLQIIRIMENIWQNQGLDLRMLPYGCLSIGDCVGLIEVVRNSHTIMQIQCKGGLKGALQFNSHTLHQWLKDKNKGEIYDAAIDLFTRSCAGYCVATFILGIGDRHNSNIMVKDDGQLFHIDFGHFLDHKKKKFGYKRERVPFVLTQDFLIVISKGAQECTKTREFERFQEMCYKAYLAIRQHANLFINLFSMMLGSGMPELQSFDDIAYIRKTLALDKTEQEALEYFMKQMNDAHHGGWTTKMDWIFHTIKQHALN
The test system of assay [8] is J82. The assay can be described thus: Antiproliferative activity against human J82 cells assessed as inhibition of cell proliferation by CCK8 assay. The format is functional, cell-based.
The test system of assay [9] is T-24. The assay can be described thus: Antiproliferative activity against human T24 cells assessed as inhibition of cell proliferation by CCK8 assay. It counts as functional, cell-based.
Assay [10] relates to SW780. The assay can be described thus: Antiproliferative activity against human SW780 cells assessed as inhibition of cell proliferation by CCK8 assay. The format is functional, cell-based.
Assay [11] has as its target T2, Heat shock protein HSP90. The note with it: dose 100.0 nM.
Description: Inhibition of Hsp90 (unknown origin) at 100 nM by TR-FRET assay relative to control

SMILES strings stand for the structures. pIC50: −log10 of the molar value.

As to `CC(C)c1cc(C(=O)N2CCc3c(sc4nc(N5CCOC[C@@H]5C)nc(N5CCOC[C@@H]5C)c34)C2)c(O)cc1O`, the inhibition in [1] is 75.4%; in assay [11] it was 56.6%. In addition, the inhibition at 1 µM in [2] worked out at 52.8%; in assay [3], 55.4%; in assay [4], 79.9%. The compound also gave an IC50 in [5] of 476 nM. The pIC50 in [6] is 7.14; in assay [7] it was less than 5.00; in assay [8], 6.11; in [9], 5.77; in assay [10], 6.43.

`CCNC(=O)c1noc(-c2cc(C(C)C)c(O)cc2O)c1-c1ccc(CN2CCOCC2)cc1` [LUMINESPIB]: the inhibition at 1 µM was found to be 35.1% in assay [2], 38.8% in [3] and 46.4% in assay [4]. Further, the pIC50 in assay [8] was 5.28; in [9] it was 5.31; in assay [10], 5.40.

As for `CC(C)c1cc(C(=O)N2CCc3c(sc4nc(-c5ccc(NC(=O)Nc6cc(Cl)cc(Cl)c6)cc5)nc(N5CCOCC5)c34)C2)c(O)cc1O`, the inhibition in assay [1] turned out to be 73.5%; in assay [11], 68.3%. For the same compound, the inhibition at 1 µM in [2] was 69.1%; in assay [3], 67%; in assay [4], 77.8%. The compound further had an IC50 in [5] of 365 nM. Further, the negative-log IC50 (pIC50) in assay [6] was 6.97; in [7], 5.25; in assay [8] it was 5.80; in assay [9], 6.26; in assay [10], 6.16.

With `CC(C)c1cc(C(=O)N2CCc3c(sc4nc(-c5ccc(NC(=O)Nc6cccc(C(F)(F)F)c6)cc5)nc(N5CCOCC5)c34)C2)c(O)cc1O`, the inhibition in assay [1] is 66.3%; in [11], 73.8%. Moreover, the values for the inhibition at 1 µM in assay [2], in assay [3] and in assay [4] were 69.1%, 82.5% and 65.6%, respectively. The same compound gave an IC50 in assay [5] of 126 nM. Also, the negative logarithm of the IC50 (pIC50) in assay [6] was 6.66; in assay [7] it was 5.61; in assay [8], 5.56; in [9] it was 6.03; in assay [10] it was 6.18.

Turning to `CC(C)c1cc(C(=O)N2CCc3c(sc4nc(-c5ccc(NC(=O)Nc6cccc(Cl)c6)cc5)nc(N5CCOCC5)c34)C2)c(O)cc1O`, the inhibition is 75.2% in assay [1] and 72.7% in [11]. Further, the inhibition at 1 µM was 84.7% in [2], 65% in assay [3] and 89.8% in [4]. In assay [5], this compound had an IC50 of 147 nM. Moreover, the pIC50 was 7.09 in assay [6]; 5.44 in assay [7]; 6.12 in [8]; 5.76 in assay [9]; 6.13 in [10].

With `COc1ccc(-c2ccc3c(N4CCOC[C@@H]4C)nc(N4CCOC[C@@H]4C)nc3n2)cc1CO` [AZD-8055], in assay [1], the inhibition stood at 93.3%. In addition, the inhibition at 1 µM worked out at 72.4% in [2], 73.3% in [3] and 79.6% in assay [4]. Moreover, the pIC50 is 5.35 in assay [7], 6.19 in assay [8], 6.27 in assay [9] and 6.09 in assay [10].

Take `CC(C)c1cc(C(=O)N2CCc3c(sc4nc(-c5ccc(NC(=O)Nc6ccc(Cl)cc6)cc5)nc(N5CCOCC5)c34)C2)c(O)cc1O`: the results for the inhibition in assay [1] and in assay [11] were 77.3% and 66.5%, respectively. The inhibition at 1 µM in assay [2] amounted to 83.9%; in assay [3], 86%; in [4], 83.2%.

For the compound `Cc1cccc(NC(=O)Nc2ccc(-c3nc(N4CCOCC4)c4c5c(sc4n3)CN(C(=O)c3cc(C(C)C)c(O)cc3O)CC5)cc2)c1`, the inhibition in assay [1] was 74.7%; in [11] it was 64.6%. Also, the inhibition at 1 µM in assay [2] worked out at 60.5%; in assay [3], 84.1%; in [4] it was 62.5%.

Regarding `CC(C)c1cc(C(=O)N2CCc3c(sc4nc(-c5ccc(NC(=O)N6CCCCC6)cc5)nc(N5CCOCC5)c34)C2)c(O)cc1O`, the results for the inhibition in [1] and in assay [11] were 50.4% and 46.7%, respectively. Also, the inhibition at 1 µM came to 54.9% in [2], 41.6% in assay [3] and 45.1% in [4].

As to `CC(C)c1cc(C(=O)N2CCc3c(sc4nc(N5CCOC(F)(F)C5)nc(N5CCOCC5)c34)C2)c(O)cc1O`, the inhibition was determined as 57.6% in assay [1] and 53.8% in assay [11]. Also, the values for the inhibition at 1 µM in assay [2], in assay [3] and in [4] were 62.7%, 63.8% and 58.8%, respectively.

For the compound `CC(C)c1cc(C(=O)N2CCc3c(sc4nc(N5CCOCC5)nc(NCCN5CCOCC5)c34)C2)c(O)cc1O`, the inhibition in [1] is 39.1%; in assay [11], 81.5%. The values for the inhibition at 1 µM in assay [2], in [3] and in [4] were 58.7%, 50.2% and 75%, respectively.

For the origin of these results see ChEMBL document CHEMBL5352392, “Design, synthesis, and biological evaluation of novel dual inhibitors of heat shock protein 90/mammalian target of rapamycin (Hsp90/mTOR) against bladder cancer cells” (Eur J Med Chem, 2022).
